Laboratory results published in patent US20250041367A1, “BACTERIOPHAGES AND USE THEREOF FOR THE TREATMENT OR PREVENTION OF INFECTION CAUSED BY E. COLI” (Purdue Research Foundation, priority 2023, published 2025).
Entries after “also recorded” stand apart in the source; their conditions may differ.

Assays:
[1] = Phage release from microcapsules in SIF after SGF; format: physicochemical; details: encapsulated phage; for phages released from their microcapsules: 1 hour SGF then 1 hour in SIF; for concentration of released phages: 1 hour SGF then 1 hour of incubation in SIF
Protocol: The extent to which phages were released from microcapsules in the intestinal environment was investigated by incubating encapsulated phages first in SGF and then in SIF. 0.5 g of microencapsulated phages (microcapsules) was added to 4.5 mL SGF in duplicate tube sets and incubated at 41° C. for 1 hour with shaking. SGF was then carefully removed via pipetting and microcapsules were combined with either 4.5 mL of SIF or 4.5 mL 1×PBS and incubated at 41° C. with shaking. Aliquots (100 μL) were collected from each sample at 1, 2, and 3 hours following exposure to SIF. The concentrations of released phages in these aliquots were determined using standard plaque assays with phages' respective host APEC serotypes. The experiment was conducted in triplicate with each phage type.

[2] = Encapsulation efficiency in sodium alginate microcapsules (plaque assay); format: physicochemical; parameters: Pre-encapsulation phage concentration / Concentration of phages in microcapsules: unit not given here; details: for Pre-encapsulation phage concentration: before encapsulation; for Pre-encapsulation phage concentration / Concentration of phages in microcapsules: plaque assay; for Encapsulation efficiency: encapsulated / pre-encapsulation phage concentration; for Concentration of phages in microcapsules: sodium alginate microcapsules dissolved
Protocol: Bacteriophages were microencapsulated within sodium alginate microcapsules as well-known in the art with some modifications (Krasaekoopt et al., 2004, International Dairy Journal, 14 (8), 737-743). In short, sodium alginate (4 g) was mixed with 400 mL of a bacteriophage filtrate to make a 1% (w/v) suspension. This suspension was allowed to gel at room temperature for 4 hours and was then processed through a Buchi Encapsulator-B395 set at 200 Hz (frequency) and 1000V (electrode) with an aperture of 0.3 mm. The resulting microcapsules were collected in a beaker containing a hardening solution (100 mM CaCl2)) with continuous stirring to avoid clumping of microcapsules. Microcapsules were allowed to sit in the 100 mM CaCl2) solution to harden for 30 minutes and were then washed three times with SM buffer. Washed microcapsules were stored in SM buffer in 50 ml conical tubes at 4° C. until further use. Each of the six phage types was individually microencapsulated in this manner.
To assess the efficiency of microencapsulation, the concentrations of microencapsulated phages were compared to pre-encapsulation concentrations as well-known in the art (Yongsheng et al., 2008, Applied and Environmental Microbiology, 74 (15), 4799). To determine bacteriophage concentrations in microcapsules, microcapsules (0.5 g) were dried by contact with filter paper and then dissolved in 4.5 mL of dissolving solution (50 mM sodium citrate, 0.2M sodium bicarbonate, and 50 mM Tris-HCl; pH 7.5). Bacteriophage concentrations were then quantified by standard plaque assay as described previously. Encapsulation efficiency (EE %) was calculated as:
EE %=encapsulated phage concentration/pre-encapsulation phage concentration

ten APEC strains = assay: Host range (lytic spectrum) over all ten APEC strains, spot assays; format: cell-based, Escherichia coli; details: for number of different APEC strains lysed: of ten APEC strains; for degree of lysis against the APEC strains lysed: over the strains that the phage lyses, scale 0-3
Protocol: (§1) The host range of each bacteriophage type was determined by performing spot assays using each of the ten distinct APEC serotypes mentioned above. Spot assays were performed as known in the art (Barrow et al., 1998, Clinical and Diagnostic Laboratory Immunology, 5 (3), 294-298). 100 μL aliquots of log-phase bacterial cultures were combined with 67.5 μL 1M CaCl2) and 4 mL LB overlay, mixed briefly, and poured over LB agar plates. Once the overlay had solidified, 5 μL aliquots of individual phage types were applied (i.e., spotted) onto the plates, and plates were incubated at 37° C. overnight. Plates were assessed for clearings the following day and the degree of lysis was measured using a four-point scale in which 0 indicated no lysis, 1.0 indicated some lysis, 2.0 indicated moderate lysis, and 3 indicated complete lysis. Spot assays were conducted in triplicate for each phage and APEC strain.

[3] = Phage stability in simulated gastric fluid (SGF); format: physicochemical; details: for phage concentration, unencapsulated, SGF-exposed: SGF pH 2.5 with pepsin; for phage concentration, unencapsulated, SGF-exposed / phage concentration, unencapsulated, PBS-treated: 41° C.; for phage concentration lower in SGF-exposed than in PBS-exposed samples: 90 minutes of exposure; for phage concentration, unencapsulated, PBS-treated: 1×PBS control
Protocol: The stability of bacteriophages in gastric environments was tested by exposing both encapsulated and unencapsulated bacteriophages to simulated gastric fluid (SGF; 0.32% pepsin (w/v) in 0.2% NaCl; pH 2.5) and to 1×PBS (Moghtader et al., 2016). In this experiment, unencapsulated phages (0.5 mL, in concentrations ranging from 1×10^9 to 4×10^8 PFU/mL depending on the phage type) were added to 4.5 mL of either SGF or PBS (5 replicates per treatment) and incubated at 41° C. This temperature was chosen as it is a typical internal temperature for chickens. Encapsulated phages (0.5 g, in concentrations ranging from 2×10^9 to 2×10^8 PFU/mL depending on the phage type) were also added to 4.5 mL of either SGF or PBS (5 replicates per treatment) and incubated at 41° C. Aliquots (100 μL) were collected from each unencapsulated phage sample after 5, 15, 30, 60, and 90 minutes of exposure to SGF or PBS. These aliquots were serially diluted, and phage concentrations were measured by standard plaque assay. At 15, 30, 60, and 90 minutes post-SGF or PBS exposure, microencapsulated phages were washed with SM buffer to remove residual SGF or PBS and then dissolved in a dissolving solution. Aliquots of the dissolved microcapsules were serially diluted and phage concentrations were measured by standard plaque assay. This experiment was conducted in triplicate for each phage type. Samples containing SGF and unencapsulated bacteriophages were serially diluted without washing and phage concentrations were measured by standard plaque assay as described above. Concentrations of viable phages after exposure to SGF or PBS for a given length of time were then compared.

[4] = tested on: E. coli serotype O2:H6 (APEC); assay: Host range spot assay; format: cell-based, Escherichia coli; details: E. coli serotype O2:H6, scale 0-3
Protocol: as §1

[5] = tested on: E. coli serotype O5 (APEC); assay: Host range spot assay; format: cell-based, Escherichia coli; parameters: key: — indicates no lysis at all; 0.1-1.0 indicates that the phage is semi-lytic; 1.1-2.0 indicates moderate lysis of bacteria; 2.1-3.0 indicates complete lysis of bacteria and formation of a transparent, circular clearing on the bacterial lawn; details: E. coli serotype O5, scale 0-3
Protocol: as §1

[6] = tested on: E. coli serotype O78:H51 (APEC); assay: Host range spot assay; format: cell-based, Escherichia coli; parameters: key: — indicates no lysis at all; 0.1-1.0 indicates that the phage is semi-lytic; 1.1-2.0 indicates moderate lysis of bacteria; 2.1-3.0 indicates complete lysis of bacteria and formation of a transparent, circular clearing on the bacterial lawn; details: E. coli serotype O78:H51, scale 0-3
Protocol: as §1

[7] = tested on: E. coli serotype O78 (APEC); assay: Host range spot assay; format: cell-based, Escherichia coli; parameters: key: — indicates no lysis at all; 0.1-1.0 indicates that the phage is semi-lytic; 1.1-2.0 indicates moderate lysis of bacteria; 2.1-3.0 indicates complete lysis of bacteria and formation of a transparent, circular clearing on the bacterial lawn; details: E. coli serotype O78, scale 0-3
Protocol: as §1

| Substance | phages released from their microcapsules [1] | concentration of released phages [1] | Pre-encapsulation phage concentration [2] | Encapsulation efficiency [2] | Concentration of phages in microcapsules [2] | number of different APEC strains lysed (ten APEC strains) | phage concentration, encapsulated, PBS-exposed ([3]; encapsulated phage, 60 minutes) | phage concentration, encapsulated, PBS-exposed ([3]; encapsulated phage, 90 minutes) | phage concentration, encapsulated, SGF-exposed ([3]; encapsulated phage, 60 minutes) | phage concentration, encapsulated, SGF-exposed ([3]; encapsulated phage, 90 minutes) | phage concentration, unencapsulated, SGF-exposed ([3]; unencapsulated phage) | degree of lysis [4] | degree of lysis [5] | degree of lysis [6] | degree of lysis [7] | degree of lysis against the APEC strains lysed (ten APEC strains) | phage concentration lower in SGF-exposed than in PBS-exposed samples ([3]; unencapsulated phage) | phage concentration lower in SGF-exposed than in PBS-exposed samples ([3]; encapsulated phage) | phage concentration, unencapsulated, PBS-treated ([3]; unencapsulated phage) | further results |
| --- | --- | --- | --- | --- | --- | --- | --- | --- | --- | --- | --- | --- | --- | --- | --- | --- | --- | --- | --- | --- |
| Escherichia phage vB_Eco_AHC | 95.8% | 7.99 log10 PFU/mL | 8.9 ± 0.1 | 94.4% | 8.4 ± 0.2 | six and at least two | 8.31 log10 PFU/mL | 8.23 log10 PFU/mL | 8.13 log10 PFU/mL | 7.15 log10 PFU/mL | could not be detected; also recorded: not detectable | 2.0 | 1.7 | 1.0 | 1.7 |  |  |  |  |  |
| Escherichia phage vB_Eco_AHP | 97.4% | 9.14 log10 PFU/mL | 9.6 ± 0.1 | 97.9% | 9.4 ± 0.1 | four and at least two | 9.23 log10 PFU/mL | 9.19 log10 PFU/mL | 9.21 log10 PFU/mL | 8.12 log10 PFU/mL |  | 2.7 | — | — | — | 2.7-3.0 | 2.35 log10 PFU/mL |  |  | phage concentration SGF-exposed versus PBS-exposed ([3]; unencapsulated phage, after 5 and 15 minutes of exposure, P>0.05): No significant differences; phage concentration SGF-exposed versus PBS-exposed ([3]; unencapsulated phage, after 30, 60, and 90 minutes of exposure, P<0.05): significantly lower |
| Escherichia phage vB_Eco_AKA | 94.4% | 7.99 log10 PFU/mL | 8.6 ± 0.2 | 98.8% | 8.5 ± 0.1 | six and at least two | 8.27 log10 PFU/mL | 8.22 log10 PFU/mL | 8.17 log10 PFU/mL | 7.3 log10 PFU/mL | could not be detected; also recorded: not detectable | 1.7 | 1.7 | 1.0 | 1.3 |  |  |  |  |  |
| Escherichia phage vB_Eco_MIA | 94.7% | 8.05 log10 PFU/mL | 8.9 ± 0.1 | 95.5% | 8.5 ± 0.1 | six and at least two | 8.27 log10 PFU/mL | 8.27 log10 PFU/mL | 8.14 log10 PFU/mL | 7.34 log10 PFU/mL | could not be detected; also recorded: not detectable | 2.3 | 1.7 | 1.0 | 2.0 |  |  |  |  |  |
| Escherichia phage vB_Eco_MP_1 [MP1] | 96.5% | 8.94 log10 PFU/mL | 9.3 ± 0.2 | 98.9% | 9.2 ± 0.2 | two and at least two | 9.23 log10 PFU/mL | 9.19 log10 PFU/mL | 9.09 log10 PFU/mL | 8.11 log10 PFU/mL | 8.71 log10 PFU/mL | 2.7 | — | — | — | 2.7 | 3.9 log10 PFU/mL | 0.97 log10 PFU/mL | 9.27 log10 PFU/mL |  |
| Escherichia phage vB_Eco_MP_2 [MP2] | 95.4% | 8.88 log10 PFU/mL | 9.4 ± 0.1 | 98.9% | 9.3 ± 0.2 | two and at least two | 9.15 log10 PFU/mL | 9.07 log10 PFU/mL | 9.11 log10 PFU/mL | 8.41 log10 PFU/mL | 7.72 log10 PFU/mL | 3.0 | — | — | — | 3.0 | 4.5 log10 PFU/mL | 0.74 log10 PFU/mL | 9.05 log10 PFU/mL |  |
